In PubChem BioAssay (NCI):
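These data come from cells grown in 96-well plates and exposed to compound for 48 hours at five concentrations. GI50 = concentration required for 50% inhibition of growth. TGI denotes the concentration required for complete inhibition of growth.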

Tests used:
Test in all cases: NCI tumour cell line growth inhibition, 48 h
[1] = system: A549 NSCLC
[2] = system: SK-MEL-28 melanoma
[3] = system: SK-MEL-2 melanoma
[4] = system: HT29 colon
[5] = system: TK-10 renal
[6] = system: NCI-H460 lung
[7] = system: SK-OV-3 ovarian
[8] = system: SR leukemia
[9] = system: RXF 393 renal
[10] = system: HS 578T breast

SMILES	TGI [1] [µM]	TGI [2] [µM]	TGI [3] [µM]	TGI [4] [µM]	TGI [5] [µM]	TGI [6] [µM]	TGI [7] [µM]	TGI [8] [µM]	TGI [9] [µM]	GI50 [1] [µM]	GI50 [2] [µM]	GI50 [3] [µM]	GI50 [4] [µM]	GI50 [5] [µM]	GI50 [9] [µM]	GI50 [6] [µM]	GI50 [7] [µM]	GI50 [10] [µM]	TGI [10] [µM]	GI50 [8] [µM]
CCOC(=O)C1(C(=O)OCC)CC=C(C)CC12C(=O)Nc1ccccc12 (configuration not stated)	> 100	> 100	> 100	> 100	> 100	> 100	> 100													
Cn1cnc([N+](=O)[O-])c1Sc1nnc(C(F)(F)F)n1C	> 100	38.1	48.5	> 100	74.4	> 100	> 100	45												
COP1(=S)OCC2CCC[C@@H]2O1 (some centres not stated)	> 100	> 100	> 100	> 100	> 100	> 100		> 100	> 100											
COC(=O)C(=O)C(C#N)c1ccc(Cl)c(Cl)c1 (configuration not stated)	> 100	> 100	> 100	> 100	> 100		> 100	> 100												
O=C1CCC2CCOc3ccc(O)c1c32 (configuration not stated)	> 100	> 100	> 100	> 100	> 100	> 100	> 100	> 100	> 100											
CC(C)(C)C(=O)OCC(COC(=O)C(C)(C)C)[N+](=O)[O-]	> 100	> 100	> 100	> 100	> 100	> 100	> 100	> 100	> 100											
O=C1c2ccccc2C2(O)Oc3cccc(O)c3C12O (configuration not stated)	> 100	> 100	> 100	> 100	> 100	> 100	> 100	> 100												
CCCCCCCCCC(=O)N[C@H]1CCc2cc(OC)c(OC)c(OC)c2-c2ccc(SC)c(=O)cc21	> 100			0.0645	25.5	0.306	0.0678		0.0551											
COc1ccc(-c2c(C#N)c(N)nc3c2CCCc2ccc(F)cc2-3)cc1OC	> 54	> 38	> 100	> 41.3	1.7	> 52.6	> 92.3		> 82.9	0.174	1.03	< 0.01	1.07	< 0.0163	0.0586	0.0163	4.27			
COc1cc2c3c(n(C)c(=O)c2cc1OC)-c1cc2c(cc1/C3=C\[C@@H](N)CCCCN)OCO2		> 100	> 100	> 100	> 75	> 82.9	> 100		> 50.9	0.381	1.39	13.2	0.337	7.12	12.7	0.707	> 26.2	15.9	81.8	
O=C1CC(c2c[nH]c3ccccc23)C(=O)N1c1ccccc1 (configuration not stated)	> 100	> 100	> 100	> 100	> 100	> 100	> 100		> 100											
COc1ccc(CCC2NCCc3cc(OC)c(OC)cc32)cc1 (configuration not stated)	> 100	> 100	> 100	> 100	> 100	> 100														
COc1ccc(Nc2c[nH]c(=O)[nH]c2=O)cc1	> 100	> 100	> 100	> 100	> 100		> 100		> 100											
CCc1cccc(C(C)CC)c1NC(=O)CC1C(=O)Nc2ccccc2S1=O (configuration not stated)	> 100	68.1	> 100	55.1	> 100	> 100		73.6	46.1											
CCCCC#Cc1cccc(=O)o1	> 100	> 100	> 100	> 100	> 100	> 100	> 100		> 100	45.6	18.3	20.8	7.03	> 100	44.3	36.2	> 100	> 100	> 100	
CC(C)c1ccc(O)c(=O)cc1	> 71.4	> 100	39	> 100	> 100	81.4	> 100	> 100	> 86.2	4.69		34.5	2.81	39.7		2.66				4.18
Cc1ccc(N(C(=O)CC(=O)N2N=C(c3ccccc3)C(N=Nc3ccc([N+](=O)[O-])cc3)C2=O)C(=O)c2ccc(Cl)cc2)cc1 (configuration not stated)	> 51.8	> 100	> 62.4	> 53	> 51.4	> 47.8	32.2	23.1	10.9											
CN1c2ccccc2C(C)(C)C12CC(c1ccc(Cl)c(S(=O)(=O)N3CCCC3)c1)=NO2 (configuration not stated)	> 100	> 100	> 100		> 100	> 100	> 100		> 100	> 100	> 100	> 100		> 100	> 100	0.375	> 100	> 100	> 100	

SMILES	TGI [1] [µM]	TGI [2] [µM]	TGI [3] [µM]	TGI [4] [µM]	TGI [5] [µM]	TGI [6] [µM]	TGI [7] [µM]	TGI [8] [µM]	TGI [9] [µM]	GI50 [1] [µM]	GI50 [2] [µM]	GI50 [3] [µM]	GI50 [4] [µM]	GI50 [5] [µM]	GI50 [9] [µM]	GI50 [6] [µM]	GI50 [7] [µM]	GI50 [10] [µM]	TGI [10] [µM]	GI50 [8] [µM]
CC1=N/C(=C\c2cccc3ccccc23)C(=O)O1	> 100	> 100	> 100	> 100	> 100	> 100			> 100											
O=C1CCC(=O)C12CCc1cccc(O)c12	> 100	> 100		> 100	> 100	> 100	> 100		> 100											
C=CCC(C)(C(=O)NCCC)C(=O)c1ccccc1O (configuration not stated)	> 100	> 100	> 100		> 100	> 100	> 100	> 100	> 100											
O=C(/C=C/c1ccc(Cl)cc1)c1ccncc1	> 100	> 100	> 100	44.4	> 100	> 100	> 100	> 100	88.8											
Cc1ccc([Se][Se]c2ccc(C)cc2)cc1	> 100	81.3	> 100	> 100	> 100	> 100	> 100		> 100											
CN(Cc1ccccc1)C1(N(C)Cc2ccccc2)CC1	> 100	> 100	> 100	> 100	> 100	> 100	> 100		> 100											
O=C1NC(=S)NC(=O)C1=Cc1ccc2ccccc2n1	> 100	> 100	> 100	> 100	> 100	> 100	> 100	> 100	> 100											
CN(C)CCNC(=O)c1cccc2c1nc(-c1ccccn1)c1ccccc12	27.9	29.9	34	39.9		23.2	37.3		29.2											
COc1ccc(/C=C/C(C(=O)O)C(=O)O)cc1	> 100	> 100	> 100	> 100	> 100	> 100	> 100	> 100												
Cc1nn(C)c(=S)n(C)c1=O	23.8	> 100	34.8	> 100	26.2	> 100	42.8		7.33											
N#Cc1ccc2oc3ccc(C#N)cc3c(=O)c2c1	57	36.7	37.4	40.1	73.4	37.4		> 100	42.8											
N#CC(=S)Nc1ccc(F)cc1	> 100	> 100	> 100	> 100	> 100	> 100	> 100	> 100	> 100											
CC1=C(c2cc(C(=O)Nc3cccc(C(F)(F)F)c3)nc(NC#N)n2)Sc2ccccc2N1	> 100	> 100	> 100	> 100	> 100	> 100	> 100	> 100	> 100											
COc1ccc(S(=O)(=O)N/N=C(\C)CN2C(=O)c3ccccc3C2=O)cc1	> 100	> 100	> 100	> 100	> 100	> 100	> 100	> 100												
C1C[OH+]CC[OH+]CC[OH+]CC[OH+]CC[OH+]CC[OH+]1.[Cl-].[Ta+5]	> 100	> 100	> 100	> 100	> 100	> 100	> 100		> 100	> 100	> 100	> 100	> 100	> 100	> 100	> 100	> 100			
Cc1nn(C)c(=O)c2nn(-c3ccccc3)c(C)c12	> 100	> 100	> 100	> 100	> 100	> 100	> 100	> 100	> 100											
Cc1cccc(N2C(=O)C(=O)C(c3nc4ccccc4s3)C(=O)C2=O)c1C	> 100	> 100	> 100	> 100	> 100		> 100	> 100												
